The values below come from patent publication US20250034150A1, “BTK INHIBITORS” (BIOGEN MA INC., priority 2021, published 2025).

Test [1] has as its system CD69 expression on CD19+ B cells in human whole blood. Description: In Vitro whole blood CD69 Assay. Particulars: B-cell; human heparinized whole blood, anti-human IgD stimulation overnight, CD19+ B cells, flow cytometry; read-out: In Vitro HWB CD69 Assay IC50 Score. The test is classed as cell-based. In outline:
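Heparinized healthy-donor human whole blood was preincubated with compound (0.1% DMSO) for 30 min at 37 °C. Stimulation used 0.1 µg/mL anti-IgD-dextran or 20 µg/mL rabbit F(ab′)2 anti-IgD for 18–22 h at 37 °C. CD69 on gated CD19+ B cells was then measured by flow cytometry.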

The next test deals with T1, BTK (Homo sapiens, UniProt Q06187).
T1 construct: purchased Upstate 14-552
Description: In Vitro BTK Kinase Assay: Btk-PolyGAT-LS Assay. Particulars: active BTK enzyme 0.25 nM, polyGAT 100 nM, 30 minutes, TRF readout; read-out: In Vitro BTK Kinase Assay IC50 Score. Type of test: biochemical. An outline of the steps: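 Active BTK at 0.25 nM phosphorylated 100 nM fluorescein-polyGAT peptide at 10 μM ATP for 30 minutes. Buffer was Tris pH 7.5 with MgCl2, DTT, Triton X-100 and casein, and reactions were stopped with EDTA. Phospho-peptide was detected by Tb-PY20 antibody TR-FRET, and IC50 came from a four-parameter fit normalized to DMSO and EDTA controls.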

T1 sequence (Q06187 whole entry): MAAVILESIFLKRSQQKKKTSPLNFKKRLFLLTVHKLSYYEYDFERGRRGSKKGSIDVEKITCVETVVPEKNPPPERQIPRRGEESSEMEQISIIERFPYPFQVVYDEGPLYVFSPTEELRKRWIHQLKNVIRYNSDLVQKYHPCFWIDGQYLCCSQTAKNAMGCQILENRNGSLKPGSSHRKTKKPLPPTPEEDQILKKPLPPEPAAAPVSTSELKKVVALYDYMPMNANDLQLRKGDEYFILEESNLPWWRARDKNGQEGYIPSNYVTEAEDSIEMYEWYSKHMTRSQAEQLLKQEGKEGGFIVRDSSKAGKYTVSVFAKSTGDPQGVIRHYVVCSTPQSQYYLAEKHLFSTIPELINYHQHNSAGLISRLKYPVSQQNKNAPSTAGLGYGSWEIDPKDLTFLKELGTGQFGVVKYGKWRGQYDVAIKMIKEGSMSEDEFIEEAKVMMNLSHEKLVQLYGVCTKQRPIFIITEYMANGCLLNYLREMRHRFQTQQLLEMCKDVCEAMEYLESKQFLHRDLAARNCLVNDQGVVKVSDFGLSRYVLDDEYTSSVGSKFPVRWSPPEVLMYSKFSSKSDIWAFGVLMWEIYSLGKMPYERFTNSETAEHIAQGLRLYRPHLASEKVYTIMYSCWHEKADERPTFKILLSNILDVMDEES

The term IC50 denotes the concentration at which inhibition is half-maximal. On to `Cn1cc(-c2cn3nccc3c(-c3ccc(CNC(=O)c4noc(C(C)(C)C)n4)c(F)c3)n2)cn1` [Example 117, 5-(tert-butyl)-N-(2-fluoro-4-(6-(1-methyl-1H-pyrazol-4-yl)pyrazolo[1,5-a]pyrazin-4-yl)benzyl)-1,2,4-oxadiazole-3-carboxamide], for which the IC50 in test [1] was less than 1000 nM; at BTK, less than 1 nM.

Regarding `Cn1cc(-c2cn3nccc3c(-c3ccc(CNC(=O)c4cnn(C(C)(C)C)n4)cc3)n2)cn1` [Example 21, 2-(tert-butyl)-N-(4-(6-(1-methyl-1H-pyrazol-4-yl)pyrazolo[1,5-a]pyrazin-4-yl)benzyl)-2H-1,2,3-triazole-4-carboxamide], the IC50 in test [1] is 1000 to 10000 nM; on BTK, less than 1 nM.

Turning to `Cn1cc(-c2cc3nccn3c(-c3ccc(CNC(=O)c4nc(C(C)(C)C)no4)cc3)n2)cn1` [Example 64, 3-(tert-butyl)-N-(4-(7-(1-methyl-1H-pyrazol-4-yl)imidazo[1,2-c]pyrimidin-5-yl)benzyl)-1,2,4-oxadiazole-5-carboxamide], the figures for the half-inhibitory concentration (IC50) (in test [1]; on BTK) were less than 1000 nM and less than 1 nM, respectively.

On to `Cn1cc(-c2cn3nccc3c(N3CCC(C)(CNC(=O)c4nc(C(C)(C)C)no4)CC3)n2)cn1` [Example 47, 3-(tert-butyl)-N-((4-methyl-1-(6-(1-methyl-1H-pyrazol-4-yl)pyrazolo[1,5-a]pyrazin-4-yl)piperidin-4-yl)methyl)-1,2,4-oxadiazole-5-carboxamide], for which the half-maximal inhibitory concentration (IC50) in test [1] fell in the range of 1000 to 10000 nM; at BTK it was 1 to 10 nM.

As for `Cn1cc(-c2cn3nccc3c(-c3ccc(CNC(=O)c4noc(C5(CF)CC5)n4)cc3)n2)cn1` [Example 20, 5-(1-(fluoromethyl)cyclopropyl)-N-(4-(6-(1-methyl-1H-pyrazol-4-yl)pyrazolo[1,5-a]pyrazin-4-yl)benzyl)-1,2,4-oxadiazole-3-carboxamide], the IC50 in test [1] was less than 1000 nM; at BTK it was less than 1 nM.

Regarding `Cn1cc(-c2cc3nccn3c(-c3ccc(CNC(=O)c4nnn(C(C)(C)C)n4)cc3)n2)cn1` [Example 58, 2-(tert-butyl)-N-(4-(7-(1-methyl-1H-pyrazol-4-yl)imidazo[1,2-c]pyrimidin-5-yl)benzyl)-2H-tetrazole-5-carboxamide], the 50% inhibitory concentration (IC50) in test [1] is less than 1000 nM; on BTK it was less than 1 nM.

`Cc1cc(-c2nc(-c3cnn(C)c3)cn3nccc23)ccc1CNC(=O)c1ccn(C(C)(C)C)n1` [Example 18, 1-(tert-butyl)-N-(2-methyl-4-(6-(1-methyl-1H-pyrazol-4-yl)pyrazolo[1,5-a]pyrazin-4-yl)benzyl)-1H-pyrazole-3-carboxamide]: the half-maximal inhibitory concentration (IC50) in test [1] is less than 1000 nM; at BTK it was 1 to 10 nM.

Turning to `Cn1cc(-c2cn3nccc3c(N3CCC(CN4CCN(CC(C)(C)C)CC4=O)CC3)n2)cn1` [Example 172, 1-((1-(6-(1-methyl-1H-pyrazol-4-yl)pyrazolo[1,5-a]pyrazin-4-yl)piperidin-4-yl)methyl)-4-neopentylpiperazin-2-one], the half-maximal inhibitory concentration (IC50) fell in the range of 1000 to 10000 nM in test [1] and 10 to 1000 nM at BTK.

In the case of `C[C@@H]1CN(c2nc(-c3cnn(C)c3)cn3nccc23)CC[C@@H]1CNC(=O)c1noc(C2(C)CC2)n1` (single isomer, unassigned) [Example 146], the values for the half-maximal inhibitory concentration (IC50) (in test [1]; at BTK) were 1000 to 10000 nM and 1 to 10 nM, respectively.

Consider `COCCOc1cn2nccc2c(-c2ccc(CNC(=O)c3nc(C4(C)CC4)no3)c(C)c2)n1` [Example 133, N-(4-(6-(2-methoxyethoxy)pyrazolo[1,5-a]pyrazin-4-yl)-2-methylbenzyl)-3-(1-methylcyclopropyl)-1,2,4-oxadiazole-5-carboxamide], for which the half-inhibitory concentration (IC50) in test [1] fell in the range of 1000 to 10000 nM; on BTK, 1 to 10 nM.

As to `Cn1cc(-c2cn3nccc3c(-c3ccc(CNC(=O)c4nc(C(C)(C)CF)no4)c(F)c3)n2)cn1` [Example 13, 3-(1-fluoro-2-methylpropan-2-yl)-N-(2-fluoro-4-(6-(1-methyl-1H-pyrazol-4-yl)pyrazolo[1,5-a]pyrazin-4-yl)benzyl)-1,2,4-oxadiazole-5-carboxamide], the figures for the IC50 (in test [1]; at BTK) were less than 1000 nM and less than 1 nM, respectively.

For `Cn1cc(-c2cc(-c3ccc(CNC(=O)c4nc(C(C)(C)CF)no4)c(F)c3)c3ccnn3c2)cn1` [Example 71, 3-(1-fluoro-2-methylpropan-2-yl)-N-(2-fluoro-4-(6-(1-methyl-1H-pyrazol-4-yl)pyrazolo[1,5-a]pyridin-4-yl)benzyl)-1,2,4-oxadiazole-5-carboxamide], the results for the IC50 (in test [1]; at BTK) were less than 1000 nM and less than 1 nM, respectively.
